According to ChEMBL document CHEMBL1134004, “Synthesis and in vitro cytotoxicity of novel long chain busulphan analogues” (Bioorg Med Chem Lett, 2001):

Legend:
Type in all cases: functional, cell-based
[1] = test system: Colon 26; test: In vitro cytotoxicity causing 50% growth inhibition was determined against C26-10 (murine colon carcinoma) cell line; settings: Mus musculus
[2] = test system: WiDr; test: In vitro cytotoxicity causing 50% growth inhibition was determined against WiDr (human colon carcinoma) cell line
[3] = test system: H322; test: In vitro cytotoxicity causing 50% growth inhibition was determined against H322 (human non small cell lung cancer) cells; settings: NCI-H322
[4] = test system: UMSCC22B; test: In vitro cytotoxicity causing 50% growth inhibition was determined against 22B (human head and neck squamous) cell line
[5] = test system: Lewis lung carcinoma cell line; test: In vitro cytotoxicity causing 50% growth inhibition was determined against LL (murine non small cell lung cancer) cell line; settings: Mus musculus
[6] = test system: A2780; test: In vitro cytotoxicity causing 50% growth inhibition was determined against […] (human ovarian cancer)cell line

Row | Compound | IC50 [1] [µM] | IC50 [2] [µM] | IC50 [3] [µM] | IC50 [4] [µM] | IC50 [5] [µM] | IC50 [6] [µM]
1 | CCCCCCCCCCCCCCC(COS(C)(=O)=O)OS(C)(=O)=O (stereo not drawn) | 31 | 25.6 | 59.7 | 46.5 | 28.4 | 45.5
2 | CCCCCCCCCCCCCCC(CCOS(C)(=O)=O)COS(C)(=O)=O (stereo not drawn) | 26.3 | 24.9 | 25.1 | 26.4 | 20.8 | 25.9
3 | CS(=O)(=O)OCCCCOS(C)(=O)=O [BUSULFAN] | 92.5 | > 100 | > 100 | > 100 | > 100 | > 100
